Laboratory results taken from patent publication US3976673A, “4-Cyclopropylmethyleneoxy-3-chlorophenylacetic acid and salts thereof” (priority 1974, dated 1976).
Entries after “also recorded” stand apart in the source; their conditions may differ.

How the values were obtained:
[1] = tested on: pain threshold of rat's paw made edematous by yeast; experiment: Analgesic activity, Randall and Selitto (pain threshold of edematous rat paw); format: in vivo, male Wistar rats; settings: vs basal values
Experimental: It was evaluated according to the following methods: a. Randall and Selitto The pressure to be exerted on a rat's paw previously made edematous by injecting into the plantar zone 0.1 ml of 20% suspension of yeast until appearance of painful reaction was measured in mmHg. The pain threshold was determined 30 minutes before and 30, 60, 90 and 120 minutes after the administration of the substances under test. 10 Male Wistar rats weighing 170-190 g were used for each dosage level and the corresponding average values considered for each dose. The percentage increase of the pain threshold compared to the basal values is taken as the index of the analgesic activity.

[2] = tested on: abdominal stretching induced by phenylbenzoquinone; experiment: Analgesic activity, Siegmund (phenylbenzoquinone abdominal stretching); format: in vivo, Swiss male mice; settings: salts' dosage expressed as acid, vs water controls
Experimental: It was evaluated according to the following methods:
The antagonism towards the abdominal stretching induced by phenylbenzoquinone was evaluated. Swiss male mice weighing 19-21 g were treated orally with the compounds under examination 30 minutes before the endoperitoneal administration of 0.25 ml of a […] aqueous phenylbenzoquinone solution. The animals were kept under observation for 30 minutes after treatment with phenylbenzoquinone and the abdominal stretchings for each animal were counted. 10 Mice for each dosage level were used and the corresponding average values considered. The percentage decrease of the number of abdominal stretchings in the animals treated with the substances under test compared with the controls treated with water was taken as the index of the analgesic activity.

[3] = tested on: hyperpyressia induced by bactopeptone; experiment: Anti-piretic activity, hyperpyressia induced by bactopeptone; format: in vivo, Wistar male rats
Experimental: (§1) This was evaluated considering 2 kinds of hyperpyressia. Hyperpyressia induced by:
1 Milliliter of 5% aqueous solution of bactopeptone preincubated for 18 hours at 37°C were injected subcutaneously in Wistar male rats weighing 170-190 g. 4 Hours after treatment with the pyrogen, the animals were divided into groups of ten animals each and treated orally with the substances under examination. The rectal temperature was taken at the beginning of the test, 4 hours after the injection of the pyrogen agent and subsequently 1, 2 and 3 hours after the administration of the substances under test. The difference between the temperature taken in the treated animals and in controls is an index of the anti-pyretic activity.

[4] = tested on: edema induced by carrageenin; experiment: Anti-inflammatory activity, Winter's method (carrageenin edema); format: in vivo, male rats; settings: 3 hours after carrageenin
Experimental: This was determined according to Winter's method which evaluates the inhibiting effect on the edema induced by carrageenin.
Male rats weighing 170-190 g were treated with the compounds under test and after 60 minutes 0.005 ml of a 1% aqueous solution of carrageenin were injected into the plantar zone of a hind paw of each animal. The volume of the treated paw was determined immediately after the injection and 3 hours later.
10 Animals were used for each dosage level. The increase difference in the volume of the paw of animals treated compared with the controls represents the index of the anti-inflammatory activity. The results obtained, expressed as percentage inhibition of the volume of the edema compared to the controls and evaluated as average value for each dose are listed in Table 3.

[5] = tested on: hyperpyressia induced by yeast; experiment: Anti-piretic activity, hyperpyressia induced by yeast; format: in vivo, albino rabbits
Experimental: as §1
To albino rabbits, 1 ml/kg of a 0.2% aqueous suspension of yeast were injected intravenously. The rectal temperature was teken at the beginning of the experiment and 60 minutes after the treatment with the pyrogen agent. Immediately after taking the temperature the compounds under test were administered orally to the animals and the rectal temperatures thereof were subsequently measured after 30, 60, 120 and 180 minutes. 10 Animals were treated for each dose level. The difference between the temperatures taken in the animals treated and in the controls is and index of the antipyretic activity. The results obtained by performing the two methods cited above for the determination of the antipyretic activity are listed in Tables 4 and 5 respectively and evaluated as average value for each dose.

[6] = Chemical stability (general statement); format: physicochemical; settings: statement in words
[7] = Toxicity / therapeutical index (general statement); settings: statement in words
[8] = 25 mg/kg i.p., salts' dosage expressed as acid
[9] = 25 mg/kg os, salts' dosage expressed as acid
[10] = 50 mg/kg i.p., salts' dosage expressed as acid
[11] = 50 mg/kg os, salts' dosage expressed as acid
[12] = 15 mg/kg os, salts' dosage expressed as acid
[13] = 5 mg/kg i.p., salts' dosage expressed as acid
[14] = 10 mg/kg os, salts' dosage expressed as acid

O=C([O-])Cc1ccc(OCC2CC2)c(Cl)c1.O=C([O-])Cc1ccc(OCC2CC2)c(Cl)c1.[Cu+2] [copper 4-cyclopropylmethyleneoxy-3-chlorophenylacetate]
% Increase of pain threshold [1, 8]: 67%
% Increase of pain threshold [1, 9]: 62%
% Increase of pain threshold [1, 10]: 121%
% Increase of pain threshold [1, 11]: 116%
% Decrease in number of stretchings ([2]; 25 mg/kg os): 50%
% Decrease in number of stretchings ([2]; 50 mg/kg os): 81%
% Decrease in number of stretchings ([2]; 100 mg/kg os): 99%
Rectal temperature, 1 hour after treatment [3, 12]: 38.1 °C
Rectal temperature, 2 hours after treatment [3, 12]: 37.7 °C
Rectal temperature, 3 hours after treatment [3, 12]: 36.7 °C
Rectal temperature, 1 hour after treatment [3, 9]: 37.8 °C
Rectal temperature, 2 hours after treatment [3, 9]: 37.2 °C
Rectal temperature, 3 hours after treatment [3, 9]: 36.6 °C
% Inhibition of oedema [4, 13]: 32%
% Inhibition of oedema [4, 14]: 38%
% Inhibition of oedema [4, 8]: 51%
% Inhibition of oedema [4, 10]: 61%
% Inhibition of oedema [4, 11]: 71%

O=C(O)Cc1ccc(OCC2CC2)c(Cl)c1 [4-cyclopropylmethyleneoxy-3-chlorophenylacetic acid]
% Increase of pain threshold [1, 8]: 27%
% Increase of pain threshold [1, 9]: 44%
% Increase of pain threshold [1, 10]: 105%
% Increase of pain threshold [1, 11]: 120%
% Increase of pain threshold ([1]; 100 mg/kg i.p.): 176%
% Increase of pain threshold ([1]; 100 mg/kg os): 180%
% Decrease in number of stretchings ([2]; 25 mg/kg os): 51%
% Decrease in number of stretchings ([2]; 50 mg/kg os): 77%
% Decrease in number of stretchings ([2]; 100 mg/kg os): 98%
Rectal temperature, 1 hour after treatment ([3]; 6 mg/kg os): 38.7 °C
Rectal temperature, 2 hours after treatment ([3]; 6 mg/kg os): 39.3 °C
Rectal temperature, 3 hours after treatment ([3]; 6 mg/kg os): 39.1 °C
Rectal temperature, 1 hour after treatment [3, 12]: 37.7 °C
Rectal temperature, 2 hours after treatment [3, 12]: 38.0 °C
Rectal temperature, 3 hours after treatment [3, 12]: 37.6 °C
Rectal temperature, 1 hour after treatment [3, 9]: 37.3 °C
Rectal temperature, 2 hours after treatment [3, 9]: 37.3 °C
Rectal temperature, 3 hours after treatment [3, 9]: 37.1 °C
Rectal temperature, 30 mins. after treatment ([5]; 5 mg/kg per os): 40.17 °C
Rectal temperature, 60 mins. after treatment ([5]; 5 mg/kg per os): 40.15 °C
Rectal temperature, 120 mins. after treatment ([5]; 5 mg/kg per os): 40.55 °C
Rectal temperature, 180 mins. after treatment ([5]; 5 mg/kg per os): 40.02 °C
Rectal temperature, 30 mins. after treatment ([5]; 10 mg/kg per os): 40.05 °C
Rectal temperature, 60 mins. after treatment ([5]; 10 mg/kg per os): 39.90 °C
Rectal temperature, 120 mins. after treatment ([5]; 10 mg/kg per os): 39.48 °C
Rectal temperature, 180 mins. after treatment ([5]; 10 mg/kg per os): 39.32 °C
Rectal temperature, 30 mins. after treatment ([5]; 25 mg/kg per os): 40.65 °C
Rectal temperature, 60 mins. after treatment ([5]; 25 mg/kg per os): 39.95 °C
Rectal temperature, 120 mins. after treatment ([5]; 25 mg/kg per os): 39.20 °C
Rectal temperature, 180 mins. after treatment ([5]; 25 mg/kg per os): 39.05 °C
% Inhibition of oedema ([4]; 2.5 mg/kg i.p.): 15%
% Inhibition of oedema [4, 13]: 37%
% Inhibition of oedema [4, 14]: 31%
% Inhibition of oedema [4, 8]: 55%
% Inhibition of oedema [4, 10]: 61%
% Inhibition of oedema [4, 11]: 65%
stability of chemical structure [6]: noticeable stability; also recorded: chemically stable
toxicity [7]: low toxicity

CCCCC1C(=O)N(c2ccccc2)N(c2ccccc2)C1=O [phenylbutazone, 4-butyl-1,2-diphenyl-3,5-dioxopyrazoline, reference compound]
% Increase of pain threshold [1, 8]: 3%
% Increase of pain threshold [1, 9]: 33%
% Increase of pain threshold [1, 10]: 42%
% Increase of pain threshold [1, 11]: 94%
% Decrease in number of stretchings ([2]; 25 mg/kg os): 3%
% Decrease in number of stretchings ([2]; 50 mg/kg os): 65%
% Decrease in number of stretchings ([2]; 100 mg/kg os): 98%
Rectal temperature, 1 hour after treatment [3, 12]: 38.3 °C
Rectal temperature, 2 hours after treatment [3, 12]: 38.8 °C
Rectal temperature, 3 hours after treatment [3, 12]: 38.6 °C
Rectal temperature, 1 hour after treatment [3, 9]: 38.1 °C
Rectal temperature, 2 hours after treatment [3, 9]: 38.9 °C
Rectal temperature, 3 hours after treatment [3, 9]: 38.3 °C
Rectal temperature, 1 hour after treatment ([3]; 100 mg/kg os): 38.1 °C
Rectal temperature, 2 hours after treatment ([3]; 100 mg/kg os): 37.6 °C
Rectal temperature, 3 hours after treatment ([3]; 100 mg/kg os): 37.4 °C
% Inhibition of oedema ([4]; 2.5 mg/kg i.p.): 0%
% Inhibition of oedema [4, 13]: 3%
% Inhibition of oedema [4, 14]: 0%
% Inhibition of oedema [4, 8]: 22%
% Inhibition of oedema [4, 10]: 55%
% Inhibition of oedema [4, 11]: 28%

C=CCOc1ccc(CC(=O)O)cc1Cl [4-allyloxy-3-chlorophenylacetic acid, reference compound]
% Increase of pain threshold [1, 8]: 7%
% Increase of pain threshold [1, 9]: 15%
% Increase of pain threshold [1, 10]: 30%
% Increase of pain threshold [1, 11]: 57%
% Increase of pain threshold ([1]; 100 mg/kg i.p.): 93%
% Increase of pain threshold ([1]; 100 mg/kg os): 92%
% Decrease in number of stretchings ([2]; 25 mg/kg os): 27%
% Decrease in number of stretchings ([2]; 50 mg/kg os): 58%
% Decrease in number of stretchings ([2]; 100 mg/kg os): 96%
Rectal temperature, 1 hour after treatment [3, 12]: 38.2 °C
Rectal temperature, 2 hours after treatment [3, 12]: 38.7 °C
Rectal temperature, 3 hours after treatment [3, 12]: 38.4 °C
Rectal temperature, 1 hour after treatment [3, 9]: 37.6 °C
Rectal temperature, 2 hours after treatment [3, 9]: 38.4 °C
Rectal temperature, 3 hours after treatment [3, 9]: 38.5 °C
Rectal temperature, 1 hour after treatment ([3]; 50 mg/kg os): 37.7 °C
Rectal temperature, 2 hours after treatment ([3]; 50 mg/kg os): 37.5 °C
Rectal temperature, 3 hours after treatment ([3]; 50 mg/kg os): 37.7 °C
Rectal temperature, 30 mins. after treatment ([5]; 10 mg/kg per os): 40.30 °C
Rectal temperature, 60 mins. after treatment ([5]; 10 mg/kg per os): 40.13 °C
Rectal temperature, 120 mins. after treatment ([5]; 10 mg/kg per os): 40.06 °C
Rectal temperature, 180 mins. after treatment ([5]; 10 mg/kg per os): 40.03 °C
Rectal temperature, 30 mins. after treatment ([5]; 25 mg/kg per os): 40.35 °C
Rectal temperature, 60 mins. after treatment ([5]; 25 mg/kg per os): 39.85 °C
Rectal temperature, 120 mins. after treatment ([5]; 25 mg/kg per os): 39.30 °C
Rectal temperature, 180 mins. after treatment ([5]; 25 mg/kg per os): 39.25 °C
% Inhibition of oedema ([4]; 2.5 mg/kg i.p.): 0%
% Inhibition of oedema [4, 13]: 10%
% Inhibition of oedema [4, 14]: 18%
% Inhibition of oedema [4, 8]: 25%
% Inhibition of oedema [4, 10]: 57%
% Inhibition of oedema [4, 11]: 34%

O=C(O)Cc1ccc(OCC2CC2)c(Cl)c1 [DL-lysine 4-cyclopropylmethyleneoxy-3-chlorophenylacetate]
% Increase of pain threshold [1, 8]: 83%
% Increase of pain threshold [1, 9]: 30%
% Increase of pain threshold [1, 10]: 103%
% Increase of pain threshold [1, 11]: 104%
% Decrease in number of stretchings ([2]; 25 mg/kg os): 60%
% Decrease in number of stretchings ([2]; 50 mg/kg os): 90%
% Decrease in number of stretchings ([2]; 100 mg/kg os): 100%
Rectal temperature, 1 hour after treatment [3, 12]: 37.6 °C
Rectal temperature, 2 hours after treatment [3, 12]: 38.0 °C
Rectal temperature, 3 hours after treatment [3, 12]: 37.8 °C
Rectal temperature, 1 hour after treatment [3, 9]: 37.4 °C
Rectal temperature, 2 hours after treatment [3, 9]: 37.0 °C
Rectal temperature, 3 hours after treatment [3, 9]: 36.7 °C
% Inhibition of oedema [4, 13]: 38%
% Inhibition of oedema [4, 14]: 41%
% Inhibition of oedema [4, 8]: 64%
% Inhibition of oedema [4, 11]: 81%
